Results as given in patent US20040265288A1, “New applications of gene therapy technology” (priority 1995, published 2004).
Like-named read-outs stand apart in the source and are kept apart here.

How the values were obtained:
[1] = system: transmembrane receptors that are activated by oligomerization; assay: Dimerization of transmembrane receptors; format: cell-based
[2] = system: FKBP12-containing fusion proteins (3xFKBP-p65 / ZFHD1-3xFKBP transcription factors); assay: Dimerizer-regulated gene expression (SEAP or hGH reporter) in transfected cells; format: cell-based, human; settings: for activation of transcription with stably integrated constructs: cells in which transcription factor and reporter gene constructs are all stably integrated
Experimental: To screen clones it is convenient to transiently transfect cells in a 96-well format. Lipofectamine is used to introduce 50 ng total DNA/96-well under conditions recommended by the manufacturer (Gibco/BRL). If introducing both the transcription factor and target gene plasmids transiently, use 20 ng of each plasmid and 10 ng of carrier DNA (it may be necessary to optimize plasmid ratios and transfection conditions for each cell type). If only introducing one plasmid, bring to 50 ng with carrier DNA.
Following transfection, add medium +/−100 nM AP1510 dimerizer (or try a range of concentrations).
After overnight incubation (or longer), assay for target gene expression.
Secreted alkaline phosphatase activity can be easily measured from the supernatant of appropriately transfected cells using fluorescence-(see (10)), or chemiluminescence-(Tropix, Bedford, Mass.) based assays. Samples to be tested should first be incubated at 65° C. for 1 hour to inactivate endogenous alkaline phosphatase activity.
In gene regulation applications, expression becomes detectable at an AP1510 concentration of approximately 10 nM, and peaks at approximately 100 nM. When SEAP or hGH reporter systems are used, expression can be easily detected after an overnight incubation with dimerizer. In our experience, the efficacy is generally similar for other dimerization applications. A range of concentrations from 1 nM to 1 uM will typically provide a good dose-response profile in both cases.

[3] = Immunosuppressive activity of dimerizer
[4] = Solubility in aqueous culture medium; format: physicochemical; settings: serial dilution in (aqueous) culture medium
Experimental: Working concentrations of AP1510 can be obtained by adding compound directly from ethanol stocks, or by diluting serially in culture medium just before use. In the latter case it is recommended that the highest concentration not exceed 5 uM, to ensure complete solubility in the (aqueous) medium. In either case, the final concentration of ethanol in the medium added to mammalian cells should be kept below 0.5% (a 200-fold dilution of a 100% ethanol solution) to prevent detrimental effects of the solvent on the cells.

cells = assay: Toxicity to cells; format: cell-based
FKBP12 = FKBP12 (Homo sapiens, UniProt P62942); settings: linker positioned in the calcineurin binding domain of FK506; cited from earlier work
Chain of FKBP12 (P62942 whole entry, the tested form may be a part): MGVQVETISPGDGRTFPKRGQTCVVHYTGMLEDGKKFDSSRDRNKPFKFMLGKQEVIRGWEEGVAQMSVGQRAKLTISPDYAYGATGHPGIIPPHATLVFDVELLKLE

[5] = linker positioned in the calcineurin binding domain of FK506; cited from earlier work
[6] = gene regulation applications, SEAP or hGH reporter, overnight incubation with dimerizer

dimerization of transmembrane receptors [1] | immunosuppressive activity [3] | highest concentration ensuring complete solubility in medium [4] | Compound | activation of transcription with stably integrated constructs [2] | activation of transcription compared with FK1012 ([2]; gene regulation applications) | AP1510 concentration at which expression becomes detectable [2, 6] | AP1510 concentration at which expression peaks [2, 6] | toxicity to cells (cells) | FKBP12 binding (FKBP12) | immunosuppressive activity [5]
successfully used to dimerize | no immunosuppressive activity | ≤ 5 µM | CCC(C)(C)C(=O)C(=O)N1CCCC[C@H]1C(=O)O[C@H](CCc1ccc(OC)c(OC)c1)c1cccc(OCC(=O)NCCNC(=O)COc2cccc([C@@H](CCc3ccc(OC)c(OC)c3)OC(=O)[C@@H]3CCCCN3C(=O)C(=O)C(C)(C)CC)c2)c1 [AP1510] | activates transcription efficiently | at lower concentrations and to a higher level than FK1012 | approximately 10 nM | approximately 100 nM | non-toxic to cells | – | –
– | – | – | FK1012 | poor | – | – | – | – | unaffected | abolishes immunosuppressive activity
